Patent US12691112B2, “FGFR tyrosine kinase inhibitors for the treatment of urothelial carcinoma” (Janssen Pharmaceutica NV, priority 2019, dated 2026)

Test system: metastatic or surgically unresectable urothelial cancer harboring select FGFR genetic alterations
Experiment: Phase 2 study NCT02365597: progression-free survival (Kaplan-Meier), investigator assessment
Assay type: in vivo, human
Procedure: The term “progression-free survival” is defined as the time from first dose to date of documented evidence of disease progression or death, whichever comes first.
Patients were contacted every 12 weeks for survival assessment.
The study was designed to enroll 180 patients with specified FGFR alterations. Of these, ≥88 were required in the selected regimen. […] Responses were assessed by investigators and an independent radiological review committee. Progression-free survival and overall survival were estimated using Kaplan-Meier product limit method. Data from patients who were progression free and alive or with unknown status were censored at last tumor assessment. Efficacy end points were analysed at primary analysis cut-off.

[1] = FGFR fusions (excluding mutations), 6 mg QD
[2] = FGFR fusions (excluding mutations), 8 mg QD
[3] = FGFR fusions (excluding mutations), 10 mg 7 on/7 off
[4] = FGFR fusions (excluding mutations), Total
[5] = FGFR mutations (excluding fusions), 6 mg QD
[6] = FGFR mutations (excluding fusions), 8 mg QD
[7] = FGFR mutations (excluding fusions), 10 mg 7 on/7 off
[8] = FGFR mutations (excluding fusions), Total
[9] = FGFR mutations and fusions, 6 mg QD
[10] = FGFR mutations and fusions, 10 mg 7 on/7 off
[11] = FGFR mutations and fusions, Total

COc1cc(OC)cc(N(CCNC(C)C)c2ccc3ncc(-c4cnn(C)c4)nc3c2)c1 [erdafitinib, N-(3,5-dimethoxy-phenyl)-N′-(1-methylethyl)-N-[3-(1-methyl-1H-pyrazol-4-yl)quinoxalin-6-yl]ethane-1,2-diamine]
6-month progression-free survival rate (95% CI) [1]: 0.40 (0.12, 0.67)
12-month progression-free survival rate (95% CI) [1]: 0.20 (0.03, 0.47)
18-month progression-free survival rate (95% CI) [1]: 0.10 (0.01, 0.36)
Progression-free survival, Median (95% CI) [1]: 5.54 (0.46, 11.10) months
Progression-free survival, Q1 [1]: 4.50 months
6-month progression-free survival rate (95% CI) [2]: 0.25 (0.10, 0.44)
12-month progression-free survival rate (95% CI) [2]: 0.15 (0.04, 0.33)
18-month progression-free survival rate (95% CI) [2]: 0 (NE, NE)
Progression-free survival, Median (95% CI) [2]: 2.76 (1.51, 5.45) months
Progression-free survival, Q1 [2]: 1.35 months
Progression-free survival, Q3 [2]: 6.64 months
6-month progression-free survival rate (95% CI) [3]: 0 (NE, NE)
12-month progression-free survival rate (95% CI) [3]: 0 (NE, NE)
18-month progression-free survival rate (95% CI) [3]: 0 (NE, NE)
Progression-free survival, Median (95% CI) [3]: 2.09 (1.41, 2.76) months
Progression-free survival, Q1 [3]: 1.41 months
Progression-free survival, Q3 [3]: 2.76 months
6-month progression-free survival rate (95% CI) [4]: 0.28 (0.15, 0.44)
12-month progression-free survival rate (95% CI) [4]: 0.15 (0.05, 0.29)
18-month progression-free survival rate (95% CI) [4]: 0.05 (0.00, 0.19)
Progression-free survival, Median (95% CI) [4]: 4.27 (2.56, 5.52) months
Progression-free survival, Q1 [4]: 1.51 months
Progression-free survival, Q3 [4]: 7.00 months
6-month progression-free survival rate (95% CI) [5]: 0.22 (0.12, 0.33)
12-month progression-free survival rate (95% CI) [5]: 0.07 (0.02, 0.16)
18-month progression-free survival rate (95% CI) [5]: 0.05 (0.01, 0.14)
Progression-free survival, Median (95% CI) [5]: 5.09 (2.83, 5.42) months
Progression-free survival, Q1 [5]: 1.77 months
Progression-free survival, Q3 [5]: 5.55 months
6-month progression-free survival rate (95% CI) [6]: 0.41 (0.29, 0.53)
12-month progression-free survival rate (95% CI) [6]: 0.15 (0.06, 0.27)
Progression-free survival, Median (95% CI) [6]: 5.55 (4.83, 7.26) months
Progression-free survival, Q1 [6]: 2.83 months
Progression-free survival, Q3 [6]: 8.44 months
6-month progression-free survival rate (95% CI) [7]: 0.25 (0.10, 0.43)
12-month progression-free survival rate (95% CI) [7]: 0.17 (0.05, 0.34)
18-month progression-free survival rate (95% CI) [7]: 0.08 (0.01, 0.23)
Progression-free survival, Median (95% CI) [7]: 4.93 (2.73, 5.55) months
Progression-free survival, Q1 [7]: 2.69 months
Progression-free survival, Q3 [7]: 7.06 months
6-month progression-free survival rate (95% CI) [8]: 0.31 (0.24, 0.39)
12-month progression-free survival rate (95% CI) [8]: 0.12 (0.07, 0.19)
18-month progression-free survival rate (95% CI) [8]: 0.06 (0.03, 0.12)
Progression-free survival, Median (95% CI) [8]: 5.36 (4.21, 5.52) months
Progression-free survival, Q1 [8]: 2.73 months
Progression-free survival, Q3 [8]: 8.25 months
6-month progression-free survival rate (95% CI) [9]: 0.50 (0.06, 0.84)
12-month progression-free survival rate (95% CI) [9]: 0.50 (0.06, 0.84)
Progression-free survival, Median (95% CI) [9]: 9.10 (0.39, NE) months
Progression-free survival, Q1 [9]: 2.97, NE months
6-month progression-free survival rate (95% CI) [10]: 0 (NE, NE)
12-month progression-free survival rate (95% CI) [10]: 0 (NE, NE)
18-month progression-free survival rate (95% CI) [10]: 0 (NE, NE)
Progression-free survival, Median (95% CI) [10]: 5.45 (1.45, 5.52) months
Progression-free survival, Q1 [10]: 1.45 months
Progression-free survival, Q3 [10]: 5.52 months
6-month progression-free survival rate (95% CI) [11]: 0.29 (0.04, 0.61)
12-month progression-free survival rate (95% CI) [11]: 0.29 (0.04, 0.61)
Progression-free survival, Median (95% CI) [11]: 5.52 (0.39, 12.65) months
Progression-free survival, Q1 [11]: 1.45 months
Progression-free survival, Q3 [11]: 12.65 months
Median (95% CI) progression-free survival per investigator assessment (Regimen 1, 10 mg intermittent): 4.8 (2.7 to 5.5) months
Progression-free survival rate at 12 months (Regimen 1, 10 mg intermittent): 18%
Median (95% CI) progression-free survival per investigator assessment (Regimen 2, 6 mg continuous): 5.3 (4.1 to 5.5) months
Progression-free survival rate at 12 months (Regimen 2, 6 mg continuous): 11%
Progression-free survival rate at 12 months (Regimen 3, 8 mg continuous): 19%
median progression-free survival (Regimen 3, 8 mg continuous): 5.5 months
